Results published in patent publication US20130196984A1, “3-AMINO-5-PHENYL-56-DIHYDRO-2H-[1,4]OXAZINES” (Siena Biotech S.p.A., priority 2009, published 2013).
Structures can show the parent of a compound that is named as a salt.

Columns and labels:
[1] = target: T1, BACE2 (Homo sapiens, UniProt Q9Y5Z0); assay: Assay A: binding studies using SPR based methods, immobilised BACE2; details: CM5 chip, immobilised BACE2 enzyme ectodomain, acetate buffer pH 4.6, 4% DMSO
T1 construct: BACE2 enzyme ectodomain (derived from plasmid “pET17b-T7-hu proBACE2”); T7 (N); made in house
T1 sequence (Q9Y5Z0 63-473 limits assumed): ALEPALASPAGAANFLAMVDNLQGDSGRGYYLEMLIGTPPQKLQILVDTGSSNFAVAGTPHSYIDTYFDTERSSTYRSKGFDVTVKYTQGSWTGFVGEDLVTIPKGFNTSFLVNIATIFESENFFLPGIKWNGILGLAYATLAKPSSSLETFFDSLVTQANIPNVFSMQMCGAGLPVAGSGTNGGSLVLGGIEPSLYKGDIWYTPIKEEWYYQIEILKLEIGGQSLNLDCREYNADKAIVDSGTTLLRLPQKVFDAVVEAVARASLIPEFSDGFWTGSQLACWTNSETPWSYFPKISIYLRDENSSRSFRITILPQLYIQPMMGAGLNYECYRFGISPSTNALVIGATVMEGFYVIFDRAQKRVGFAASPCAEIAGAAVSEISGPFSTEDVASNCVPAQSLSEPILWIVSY

[2] = target: T2, BACE1 (Homo sapiens, UniProt P56817); assay: Cellular Abeta-lowering assay; type: cell-based; set-up: endogenous in cells; host or cells: HEK293 stably transfected with human APP695 wt; details: HEK293 cells stably transfected with human APP wt (APP695), Aβ40 ELISA of supernatant after 18-20 hrs
T2 sequence (P56817 46-501): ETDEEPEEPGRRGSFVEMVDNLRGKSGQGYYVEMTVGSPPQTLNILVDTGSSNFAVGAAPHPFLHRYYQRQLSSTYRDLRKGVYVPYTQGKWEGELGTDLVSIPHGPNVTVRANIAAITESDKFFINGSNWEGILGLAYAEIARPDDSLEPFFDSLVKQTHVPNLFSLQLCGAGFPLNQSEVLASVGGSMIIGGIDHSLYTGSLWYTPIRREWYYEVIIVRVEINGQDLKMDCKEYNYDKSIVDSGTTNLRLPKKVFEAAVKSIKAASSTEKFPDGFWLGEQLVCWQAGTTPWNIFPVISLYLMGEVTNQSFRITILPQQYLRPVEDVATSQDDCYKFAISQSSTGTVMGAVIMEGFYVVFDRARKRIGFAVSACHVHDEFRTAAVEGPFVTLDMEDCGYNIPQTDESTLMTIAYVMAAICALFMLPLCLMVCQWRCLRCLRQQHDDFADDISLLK

[3] = target: T2, BACE1; assay: Assay A: binding studies using SPR based methods, immobilised BACE1; set-up: 6his-tagged full length BACE 1 expressed in SF9 cells; 6His; made in house; host or cells: SF9 insect cells; details: CM5 chip, immobilised 6his-tagged full length BACE 1, acetate buffer pH 4.6, 4% DMSO;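 further: KD from a 1:1 kinetic fit (koff/kon) of real-time association and dissociation curves, or for fast binders from end-of-association equilibrium responses plotted against log concentration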
[4] = target: T3, BACE2 (Rattus norvegicus, UniProt Q6IE75); assay: Assay for BACE inhibition by measuring cellular TMEM27 cleavage; type: cell-based; details: INS-TMEM27 (INS1e-derived) cells, ELISA of shed human TMEM27 in supernatant;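 further: inhibitor added 2 h before doxycycline-induced hTMEM27 expression, supernatant collected after further 46 h, endogenous BACE2 activity read as reduced TMEM27 shedding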
T3 construct: endogenous cellular BACE2 in the Ins1e rat cell line; endogenous in cells; host or cells: INS-TMEM27 (INS1e-derived rat cell line with doxycycline-inducible full-length hTMEM27)
T3 sequence (Q6IE75 63-514): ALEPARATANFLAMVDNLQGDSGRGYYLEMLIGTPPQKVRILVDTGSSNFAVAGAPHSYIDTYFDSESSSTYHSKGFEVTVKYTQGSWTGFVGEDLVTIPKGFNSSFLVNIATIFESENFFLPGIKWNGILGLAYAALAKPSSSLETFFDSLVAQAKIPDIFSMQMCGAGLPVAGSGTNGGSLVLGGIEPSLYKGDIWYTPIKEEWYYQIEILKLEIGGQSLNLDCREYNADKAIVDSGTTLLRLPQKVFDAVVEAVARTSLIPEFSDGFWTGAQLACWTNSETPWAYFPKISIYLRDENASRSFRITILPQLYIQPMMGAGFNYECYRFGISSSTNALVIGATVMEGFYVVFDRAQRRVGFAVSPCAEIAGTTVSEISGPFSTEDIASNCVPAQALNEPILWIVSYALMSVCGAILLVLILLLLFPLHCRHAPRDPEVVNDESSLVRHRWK

Row | SMILES | Kd [1] [nM] | IC50 [2] [nM] | Kd [3] [nM] | IC50 [4] [nM]
1 | C[C@@]1(c2cc(NC(=O)c3ncc(F)cc3F)ccc2F)COCC(N)=N1 [Example 41, 3,5-difluoro-pyridine-2-carboxylic acid [3-((R)-5-amino-3-methyl-3,6-dihydro-2H-[1,4]oxazin-3-yl)-4-fluoro-phenyl]-amide] | 6 | 26 | 54 | 4
2 | Cn1cc(Cl)c(C(=O)Nc2ccc(F)c([C@]3(C)COCC(N)=N3)c2)n1 [Example 43, 4-chloro-1-methyl-1H-pyrazole-3-carboxylic acid [3-((R)-5-amino-3-methyl-3,6-dihydro-2H-[1,4]oxazin-3-yl)-4-fluoro-phenyl]-amide] | 5 | 79 | 85 | 13
3 | Cc1ccsc1C(=O)Nc1ccc(F)c([C@]2(C)COCC(N)=N2)c1 [Example 44, 3-methyl-thiophene-2-carboxylic acid [3-((R)-5-amino-3-methyl-3,6-dihydro-2H-[1,4]oxazin-3-yl)-4-fluoro-phenyl]-amide] | 43 | 470 | 1820 | 310
4 | C[C@@]1(c2cc(NC(=O)c3ncoc3-c3ccccc3)ccc2F)COCC(N)=N1 [Example 45, 5-phenyl-oxazole-4-carboxylic acid [3-((R)-5-amino-3-methyl-3,6-dihydro-2H-[1,4]oxazin-3-yl)-4-fluoro-phenyl]-amide] | 3020 | 760 | 3940 | 620
5 | C[C@@]1(c2cc(NC(=O)c3sccc3Cl)ccc2F)COCC(N)=N1 [Example 46, 3-chloro-thiophene-2-carboxylic acid [3-((R)-5-amino-3-methyl-3,6-dihydro-2H-[1,4]oxazin-3-yl)-4-fluoro-phenyl]-amide] | 629 | 1350 | 10800 | 720
6 | C[C@@]1(c2cc(NC(=O)c3ncccc3OCC(F)(F)F)ccc2F)COCC(N)=N1 [Example 48, 3-(2,2,2-trifluoro-ethoxy)-pyridine-2-carboxylic acid [3-((R)-5-amino-3-methyl-3,6-dihydro-2H-[1,4]oxazin-3-yl)-4-fluoro-phenyl]-amide] | 115 | 350 | 1200 | 52
7 | CC1(C)OCC(N)=N[C@]1(C)c1cc(NC(=O)c2ccc(Cl)cn2)ccc1F [Example 49, 5-chloro-pyridine-2-carboxylic acid [3-((R)-5-amino-2,2,3-trimethyl-3,6-dihydro-2H-[1,4]oxazin-3-yl)-4-fluoro-phenyl]-amide] | 22 | 4 | 15 | 66
8 | CC1(C)OCC(N)=N[C@]1(C)c1cc(NC(=O)c2ccc(OCC(F)(F)F)cn2)ccc1F [Example 50, 5-(2,2,2-trifluoro-ethoxy)-pyridine-2-carboxylic acid [3-((R)-5-amino-2,2,3-trimethyl-3,6-dihydro-2H-[1,4]oxazin-3-yl)-4-fluoro-phenyl]-amide] | 2100 | 39 | 900 | 1400
9 | CC1(C)OC[C@@](C)(c2cccc(NC(=O)c3ccc(Cl)cn3)c2)N=C1N [Example 51, 5-chloro-pyridine-2-carboxylic acid [3-((R)-5-amino-3,6,6-trimethyl-3,6-dihydro-2H-[1,4]oxazin-3-yl)-phenyl]-amide] | 2 | 14 | 22 | 5
10 | C[C@@]1(c2cc(NC(=O)c3ccc(C#N)cn3)ccc2F)COCC(N)=N1 [Example 72, 5-cyano-pyridine-2-carboxylic acid [3-((R)-5-amino-3-methyl-3,6-dihydro-2H-[1,4]oxazin-3-yl)-4-fluoro-phenyl]-amide hydrochloride] | 25 | 3 | 16 | 39
